According to patent US7767659B2, “Synthesis of naturally occurring ecteinascidins and related compounds” (Pharma Mar, S.A., priority 2002, dated 2010):
Like-named read-outs stand apart in the source and are kept apart here.

What was measured:
LNCaP = assay: Inhibition of cells growth by colorimetric assay (SRB); conditions: Homo sapiens, LNCaP, 48 h
Outline: (§1)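 Colorimetric SRB read (490 nm) on triplicate wells after 48 h at 37 °C, 5% CO2. Dose range 10 to 10^−8 μg/ml; 5×10^3 cells/well pre-attached 18 h.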

PANC-1 = assay: as above; conditions: Homo sapiens, PANC-1, 48 h
Outline: as §1

HeLa-APL = assay: as above; conditions: Homo sapiens, 48 h
Outline: as §1

IGROV-1 = assay: as above; conditions: Homo sapiens, IGROV-1, 48 h
Outline: as §1

SK-MEL-28 = assay: as above; conditions: Homo sapiens, SK-MEL-28, 48 h
Outline: as §1

K-562 = assay: as above; conditions: Homo sapiens, K562, 48 h
Outline: as §1

HeLa = assay: as above; conditions: Homo sapiens, HeLa, 48 h
Outline: as §1

LoVo-Dox = assay: as above; conditions: Homo sapiens, 48 h
Outline: as §1

DU-145 = assay: as above; conditions: Homo sapiens, DU-145, 48 h
Outline: as §1

SK-BR-3 = assay: as above; conditions: Homo sapiens, SK-BR-3, 48 h
Outline: as §1

IGROV-ET = assay: as above; conditions: Homo sapiens, 48 h
Outline: as §1

A-549 = assay: cells; conditions: Homo sapiens, A549, 48 h
Outline: as §1

LoVo = assay: cells; conditions: Homo sapiens, LoVo, 48 h
Outline: as §1

HT-29 = assay: cells; conditions: Homo sapiens, HT-29, 48 h
Outline: as §1

In the case of `C=CCN1[C@@H]2c3c(cc(C)c(OC)c3O)C[C@H]1[C@H](C#N)N1C2[C@@H]2SC[C@]3(NCCc4cc(O)c(OC)cc43)C(=O)OC[C@H]1c1c3c(c(C)c(OC(=O)CCCCCCC)c12)OCO3` (some centres unmarked) [compound 50], the GI50 (LNCaP; read-out: LNCAP GI50) is reported as 0.948 µM, the CC50 (LNCaP; read-out: LNCAP LC50) is reported as 11.3 µM and the IC (TGI) (LNCaP; read-out: LNCAP TGI) is reported as 3.68 µM. For the same molecule, the GI50 (PANC-1; read-out: PANC-1 GI50) was 2.45 µM, the CC50 (PANC-1; read-out: PANC-1 LC50) was 11.3 µM and the IC (TGI) (PANC-1; read-out: PANC-1 TGI) was 11.3 µM. It also gave a GI50 (HeLa-APL; read-out: HELA-APL GI50) of 3.11 µM, a CC50 (HeLa-APL; read-out: HELA-APL LC50) of 11.3 µM and a GI50 (IGROV-1; read-out: IGROV GI50) of 2.42 µM. It also gave a CC50 (IGROV-1; read-out: IGROV LC50) of 1130 µM, an IC (TGI) (IGROV-1; read-out: IGROV TGI) of 11.3 µM and a GI50 (SK-MEL-28; read-out: MEL-28 GI50) of 2.53 µM. For the same molecule, the CC50 (SK-MEL-28; read-out: MEL-28 LC50) was 11.3 µM, the IC (TGI) (SK-MEL-28; read-out: MEL-28 TGI) was 8.36 µM and the GI50 (K-562; read-out: K562 GI50) was 0.891 µM. For the same molecule, the CC50 (K-562; read-out: K562 LC50) was 11.3 µM, the IC (TGI) (K-562; read-out: K562 TGI) was 11.3 µM and the GI50 (HeLa; read-out: HELA GI50) was 3.75 µM. The CC50 (HeLa; read-out: HELA LC50) was 11.3 µM, the IC (TGI) (HeLa; read-out: HELA TGI) was 11.3 µM and the GI50 (LoVo-Dox; read-out: LOVO-DOX GI50) was 10.1 µM. For the same molecule, the CC50 (LoVo-Dox; read-out: LOVO-DOX LC50) was 11.3 µM, the IC (TGI) (LoVo-Dox; read-out: LOVO-DOX TGI) was 11.3 µM and the GI50 (DU-145; read-out: DU145 GI50) was 1.8 µM. It also gave a CC50 (DU-145; read-out: DU145 LC50) of 1130 µM, an IC (TGI) (DU-145; read-out: DU145 TGI) of 918 µM and a GI50 (SK-BR-3; read-out: SK-BR3 GI50) of 13.1 µM. For the same molecule, the CC50 (SK-BR-3; read-out: SK-BR3 LC50) was 11.3 µM, the IC (TGI) (SK-BR-3; read-out: SK-BR3 TGI) was 11.3 µM and the GI50 (IGROV-ET; read-out: IGROV-ET GI50) was 3.29 µM. For the same molecule, the CC50 (IGROV-ET; read-out: IGROV-ET LC50) was 11.3 µM, the IC (TGI) (IGROV-ET; read-out: IGROV-ET TGI) was 11.3 µM and the GI50 (A-549; read-out: A549 GI50) was 3.76 µM. The CC50 (A-549; read-out: A549 LC50) was 11.3 µM, the IC (TGI) (A-549; read-out: A549 TGI) was 11.3 µM and the GI50 (LoVo; read-out: LOVO GI50) was 4.94 µM. For the same molecule, the CC50 (LoVo; read-out: LOVO LC50) was 11.3 µM, the IC (TGI) (LoVo; read-out: LOVO TGI) was 11.3 µM and the GI50 (HT-29; read-out: HT29 GI50) was 8.9 µM. For the same molecule, the CC50 (HT-29; read-out: HT29 LC50) was 11.3 µM and the IC (TGI) (HT-29; read-out: HT29 TGI) was 11.3 µM.

Molecule `C=CCOc1c(C)c2c(c3c1CC1[C@H]4c5c(cc(C)c(OC)c5O)C[C@@H]([C@H](C#N)N1[C@H]3CO)N4C)OCO2` (some centres unmarked) [compound 2] has a GI50 (LNCaP; read-out: GI50 LNCAP) of 0.592 µM, a CC50 (LNCaP; read-out: LC50 LNCAP) of 2.76 µM and an IC (TGI) (LNCaP; read-out: TGI LNCAP) of 1.11 µM. It also gave a GI50 (PANC-1; read-out: GI50 PANC-1) of 0.89 µM, a CC50 (PANC-1; read-out: LC50 PANC-1) of 19.2 µM and an IC (TGI) (PANC-1; read-out: TGI PANC-1) of 3.26 µM. It also gave a GI50 (HeLa-APL; read-out: GI50 HELA-APL) of 0.479 µM, a CC50 (HeLa-APL; read-out: LC50 HELA-APL) of 1.49 µM and an IC (TGI) (HeLa-APL; read-out: TGI HELA-APL) of 0.844 µM. It also gave a GI50 (IGROV-1; read-out: GI50 IGROV) of 0.926 µM, a CC50 (IGROV-1; read-out: LC50 IGROV) of 18.2 µM and an IC (TGI) (IGROV-1; read-out: TGI IGROV) of 2.26 µM. The GI50 (SK-MEL-28; read-out: GI50 MEL-28) was 0.598 µM, the CC50 (SK-MEL-28; read-out: LC50 MEL-28) was 5.31 µM and the IC (TGI) (SK-MEL-28; read-out: TGI MEL-28) was 1.27 µM. For the same molecule, the GI50 (K-562; read-out: GI50 K562) was 0.516 µM, the CC50 (K-562; read-out: LC50 K562) was 4.79 µM and the IC (TGI) (K-562; read-out: TGI K562) was 1.22 µM. The GI50 (HeLa; read-out: GI50 HELA) was 0.763 µM, the CC50 (HeLa; read-out: LC50 HELA) was 9.8 µM and the IC (TGI) (HeLa; read-out: TGI HELA) was 1.45 µM. It also gave a GI50 (LoVo-Dox; read-out: GI50 LOVO-DOX) of 0.924 µM, a CC50 (LoVo-Dox; read-out: LC50 LOVO-DOX) of 19.2 µM and an IC (TGI) (LoVo-Dox; read-out: TGI LOVO-DOX) of 19.2 µM. The GI50 (DU-145; read-out: GI50 DU145) was 0.897 µM, the CC50 (DU-145; read-out: LC50 DU145) was 19.2 µM and the IC (TGI) (DU-145; read-out: TGI DU145) was 3.13 µM. For the same molecule, the GI50 (SK-BR-3; read-out: GI50 SK-BR3) was 0.778 µM, the CC50 (SK-BR-3; read-out: LC50 SK-BR3) was 19.2 µM and the IC (TGI) (SK-BR-3; read-out: TGI SK-BR3) was 1.75 µM. For the same molecule, the GI50 (IGROV-ET; read-out: GI50 IGROV-ET) was 1.06 µM, the CC50 (IGROV-ET; read-out: LC50 IGROV-ET) was 19.2 µM and the IC (TGI) (IGROV-ET; read-out: TGI IGROV-ET) was 19.2 µM. For the same molecule, the GI50 (A-549; read-out: GI50 A549) was 0.633 µM, the CC50 (A-549; read-out: LC50 A549) was 9.11 µM and the IC (TGI) (A-549; read-out: TGI A549) was 1.39 µM. For the same molecule, the GI50 (LoVo; read-out: GI50 LOVO) was 0.533 µM, the CC50 (LoVo; read-out: LC50 LOVO) was 1.92 µM and the IC (TGI) (LoVo; read-out: TGI LOVO) was 1.07 µM. For the same molecule, the GI50 (HT-29; read-out: GI50 HT29) was 1.06 µM, the CC50 (HT-29; read-out: LC50 HT29) was 19.2 µM and the IC (TGI) (HT-29; read-out: TGI HT29) was 14.2 µM.
